From patent US20100317565A1, “Novel Peptides and Their Use for the Treatment of Edema” (Rentschler Beteiligungs GmbH, priority 2007, published 2010)
“Also recorded” adds a separate entry of the source. Bridge positions count the residues as written; N and C are the ends. Ends that are not written are not given here.

Tests used:
[1] = test system: polarized Calu-3 cell monolayers; assay: Transepithelial electrical resistance (TEER) assay on polarized Calu-3 cell monolayers; assay type: cell-based, human; settings: peptide 250 μM added to apical and basolateral compartment; peak TEER value as percent of Tip peptide (=100%)
rat lung = settings: ex vivo and in vivo rat lung model; cited from earlier work
in situ mouse lung = settings: cited from earlier work
[2] = test system: microvascular endothelial cells; settings: cited from earlier work
[3] = test system: isolated blood perfused flooded rat lung (E. coli-LPS induced lung edema); assay: Endotoxin induced lung injury in the isolated blood perfused flooded rat lung model; assay type: in vivo, male Spraque-Dawley rats; settings: P5 3 mg or P9 10 mg in 1 ml saline i.t.; for Attenuation of LPS-induced total lung weight gain / lung edema production: LPS 3 mg/kg i.t., 18 h, 2-h ex-vivo reperfusion; for Inspiratory resistive work / Static and dynamic lung compliance: LPS-treated lungs; for Inspiratory resistive work / Static and dynamic lung compliance / Effect on lung wet/dry weight ratio: 2-h reperfusion; for Effect on lung wet/dry weight ratio: versus LPS+saline treated lungs
Experimental: In the “Endotoxin induced lung injury in the isolated blood perfused flooded rat lung model”, which is an ex vivo permeability lung edema model, E. coli-LPS is instilled intratracheally and after […] the lung is isolated and placed in an artificial thorax chamber. Then, perfusion occurs with autolo-gous blood. After an one hour stabilisation period, the test compound (in 1 ml saline) is instilled intratra-cheally. Lung parameters are measured over 2 hours. The main read-outs are lung-weight and parameters of lung mechanics and hemodynamics.
In the “Endotoxin induced lung injury in the isolated blood perfused flooded rat lung model”, which is an ex vivo permeability lung edema model, E. coli-LPS is instilled intratracheally and after […] the lung is isolated and placed in an artificial thorax chamber. Then, perfusion occurs with autologous blood. After an one hour stabilisation period, the test compound (in 1 ml saline) is instilled intratracheally. Lung parameters are measured over 2 hours. The primary readout parameters of this […] model are wet weight of lung and heart and P/V curves which are parameters of lung mechanics and hemodynamics.
In this ex vivo lung edema model, E. coli-LPS (3 mg/kg) was instilled intratracheally into male Spraque-Dawley rats. After 18 h the lung was isolated and placed in an artificial thorax chamber. Then, perfusion occurred with autologous blood. After one hour stabilisation period, the test compound (in 1 ml saline) was instilled intratracheally. Lung parameters were measured over 2 h. The main read-outs were lung-weight and parameters of lung mechanics and hemodynamics. • Number of rats: n=7-8 per group • Data are means±SEM • Treatment groups:
? P9 • Perfusion conditions: • imposed pulmonary artery perfusion pressure: 20 mmHg • imposed left atrial pressure: 10 mmHg • resulting pulmonary blood flow: ˜6-9 ml/min • resulting pulmonary microvascular pressure: ˜14.5 mmHg • imposed tidal volume: 7 ml/kg; respiratory rate: 30 bpm • imposed positive end-expiratory airway pressure: 3.0 cmH2O-arterial pH: 7.5 • adjusted hematocrit: 28% (autologous blood)

Row | Substance | Activity in TEER assay (c = 250 μM) (% of Tip activity) [1] | other results
1 | 2 (CGTKPIELGPDEPKAVC; disulfide 1-17 (inferred)) [compound 2] | 130.1 % of Tip activity | –
2 | 5 (TPEGAETPEGAETPEGAETPEGAETPEGAE; anti-edema peptide) [compound 5] | 93.0 % of Tip activity | –
3 | 11 (TPEGAEGGGGGTPEGAEGGGGGTPEGAE; anti-edema peptide) [compound 11] | 80.0 % of Tip activity | –
4 | 20 (GGSPSQRETPEGAEAKPWYGGSPSQRETPEGAEAKPWYGGSPSQRETPEGAEAKPWY; anti-edema peptide) [compound 20] | 539.0 % of Tip activity | –
5 | 35 (CGQRESPEGAEAKPWYC; anti-edema peptide) [compound 35] | 120.9 % of Tip activity | –
6 | 36 (CGQRESPEGADAKPWYC; anti-edema peptide) [compound 36] | 119.4 % of Tip activity | –
7 | 39 (CGQRESPDGAEAKPWYC; anti-edema peptide) [compound 39] | 88.8 % of Tip activity | –
8 | 40 (CGQRESPDGADAKPWYC; anti-edema peptide) [compound 40] | 127.7 % of Tip activity | –
9 | 42 (CGQRESPDGGDAKPWYC; anti-edema peptide) [compound 42] | 123.6 % of Tip activity | –
10 | 43 (CGQRETPEGADAKPWYC; anti-edema peptide) [compound 43] | 139.8 % of Tip activity | –
11 | 45 (CGQRETPDGADAKPWYC; anti-edema peptide) [compound 45] | 172.4 % of Tip activity | –
12 | 46 (CGQRETPDGAEAKPWYC; anti-edema peptide) [compound 46] | 130.4 % of Tip activity | –
13 | 49 (CGTPEGAETPEGAETPEGAEGC; anti-edema peptide) [compound 49] | 139.9 % of Tip activity | –
14 | 50 (CGGGGGTPEGAEGGGGGTPEGAEGGGGGTPEGAEGC; anti-edema peptide) [compound 50] | 156.5 % of Tip activity | –
15 | 51 (CGTPEGAETPEGAETPEGAETPEGAETPEGAEGC; anti-edema peptide) [compound 51] | 146.6 % of Tip activity | –
16 | 52 (SPEGGEGGGGGSPEGGEGGGGGSPEGGE; anti-edema peptide) [compound 52] | 87.1 % of Tip activity | –
17 | 53 (CGSPEGGEGGGGGSPEGGEGGGGGSPEGGEGC; anti-edema peptide) [compound 53] | 131.7 % of Tip activity | –
18 | 54 (SPEGGDGGGGGSPEGGDGGGGGSPEGGD; anti-edema peptide) [compound 54] | 90.7 % of Tip activity | –
19 | 55 (CGSPEGGDGGGGGSPEGGDGGGGGSPEGGDGC; anti-edema peptide) [compound 55] | 146.0 % of Tip activity | –
20 | CGQRETPEGAEAKPWYC [SEQ ID NO: 61] | – | Alveolar fluid reabsorption (rat lung): up-regulated; Alveolar fluid reabsorption (in situ mouse lung): up-regulated; Membrane conductance [2]: increased
21 | CGSPEGGDSPEGGDSPEGGDGC (anti-edema peptide) [Peptide P5] | – | Attenuation of LPS-induced total lung weight gain / lung edema production [3]: significantly attenuate; also recorded: attenuating the LPS-induced total lung weight gain; Inspiratory resistive work [3]: especially reduces; Static and dynamic lung compliance [3]: markedly ameliorates; Effect on lung wet/dry weight ratio [3]: statistically significantly different from LPS+saline treated lungs
22 | SPEGGEGGGGGSPEGGEGGGGGSPEGGE (anti-edema peptide) [SEQ ID NO: 52] | – | Attenuation of LPS-induced total lung weight gain / lung edema production ([3]; listed as P9): attenuating the LPS-induced total lung weight gain; Inspiratory resistive work [3]: especially reduces; Static and dynamic lung compliance [3]: markedly ameliorates; Effect on lung wet/dry weight ratio [3]: less pronounced
